Results reported in patent publication US20080292619A1, “Pharmaceutical Composition Containing Meltrin Antagonist” (MOCHIDA PHARMACEUTICAL CO., LTD., priority 2004, published 2008).
In the oligonucleotide strings, read from the 5' end, every base follows the letter of its sugar. An asterisk marks phosphorothioate; unmarked linkages are phosphodiester. Other units and linkages are bracketed, terminal groups are in braces. A string of capitals states the bases alone. d = 2'-deoxy (DNA)

System: human preadipocyte
Assay: Effect of antisense compound on adipocyte proliferation and differentiation (Adipo Red)
Format: cell-based
Details: 300 nM; human preadipocyte
Description: First, human preadipocyte (Human Preadipocytes-sq POIETICS #PT-5020, Sanko Junyaku Co., Ltd.) was suspended in growth medium (#PT-8200, Sanko Junyaku Co., Ltd.), and after adding the suspension to a 96 well culture plate at 1×10^4 cells/well/100 μL, the cells were cultured overnight at 37° C. in the presence of 5% CO2.
The preadipocyte was cultured overnight, and after washing the preadipocyte twice with serum-free DMEM, Opti-MEM was added at 80 μL/well.
Gene transfection reagent Lipofectin was diluted with Opti-MEM to 20 μg/mL, and the dilution was allowed to stand at room temperature for 30 minutes. Next, the antisense oligodeoxynucleotide synthesized as described above was heated at 90° C. for 3 minutes, and after quenching on ice, diluted with Opti-MEM to a concentration 10 times higher than the final concentration. Equal amounts of the Lipofectin in Opti-MEM and the antisense oligodeoxynucleotide in Opti-MEM were mixed, and the mixture was incubated at room temperature for 15 minutes and added to 96 well plate at 20 μL/well. After incubating at 37° C. for 4 hours in the presence of 5% CO2, it was used for examination as described below.
The differentiation medium was prepared by using growth medium (#PT-8200, Sanko Junyaku Co., Ltd.) and supplement kit (PGM Single Quots, #PT-9500, Sanko Junyaku Co., Ltd.) according to the instruction of the kit. Next, the culture supernatant containing the Lipofectin was removed from the 96 well plate prepared in the above (2), and the plate was washed twice with serum-free DMEM, and the differentiation medium prepared as described above was added at 100 μL/well. The plate was then incubated at 37° C. for 5 days to 15 days in the presence of 5% CO2.
Accumulation of the neutral fat in the adipocyte was determined by fluorometry using Adipo Red stain.
After taking the 96 well plate out of the CO2 incubator, the plate was allowed to stand until it reached room temperature. The plate was centrifuged at 300 g (1200 rpm) for 10 minutes at room temperature to remove the medium. Next, after gently washing with PBS (SIGMA) at 200 μL/well, PBS was added to the well at 200 μL/well. Next, Adipo Red Assay Reagent (Adipo Red, Cat. #PT-7009, Lot.3F0497, A Cambrex Company) was added at 5 μL/well, and the plate was allowed to stand at room temperature for at least 10 minutes to thereby stain the neutral fat accumulated in the adipocyte. The fat accumulation was determined by measuring fluorescence intensity in a fluorometer at an excitation wavelength of 485 nm and an emission wavelength of 535 nm.
The suppression rate of the adipocyte differentiation was calculated by converting the fluorescence intensity of the well transfected with the antisense compound in relation to the fluorescence intensity of the well without transfection with the antisense compound which was assumed as 100%. The result was rated “+” when the suppression rate was at least 25%, “++” when the suppression rate was at least 50%, and “+++” when the suppression rate was at least 75%.

2 (dC*dT*dG*dG*dT*dT*dA*dA*dT*dG*dG*dT*dT*dC*dA*dC*dA*dT*dC*dT) [compound 2]
Supression of adipose differentiation 300 nM: ++ (“++” when the suppression rate was at least 50%)
